BindingDB's records for doi:10.1016/0014-2999(95)00786-5 (Cnrs Upr 9023, 1996)
“And” between values parts separate entries of the source, which are not always exact repeats. Equal values may be shown once. Where a name gives a salt, the structure may show the parent alone.

Tests used:
[1] = biological target: 5-hydroxytryptamine receptor 4 (Homo sapiens, UniProt Q13639)
[2] = biological target: 5-hydroxytryptamine receptor 4 (Mus musculus, UniProt P97288)
Chain of 5-hydroxytryptamine receptor 4 (Mus musculus, UniProt P97288) (P97288 whole entry): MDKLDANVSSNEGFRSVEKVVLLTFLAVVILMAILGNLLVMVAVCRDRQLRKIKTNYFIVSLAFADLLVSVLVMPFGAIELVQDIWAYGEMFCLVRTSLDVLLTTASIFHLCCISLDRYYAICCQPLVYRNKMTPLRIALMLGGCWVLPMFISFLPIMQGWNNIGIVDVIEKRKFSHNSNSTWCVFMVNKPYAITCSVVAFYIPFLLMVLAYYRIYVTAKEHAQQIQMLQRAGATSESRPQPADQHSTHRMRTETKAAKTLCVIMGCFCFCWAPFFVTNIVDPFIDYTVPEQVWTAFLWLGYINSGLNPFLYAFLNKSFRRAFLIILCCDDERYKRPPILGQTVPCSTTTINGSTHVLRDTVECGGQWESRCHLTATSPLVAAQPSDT

Chain of 5-hydroxytryptamine receptor 4 (Homo sapiens, UniProt Q13639) (Q13639 whole entry): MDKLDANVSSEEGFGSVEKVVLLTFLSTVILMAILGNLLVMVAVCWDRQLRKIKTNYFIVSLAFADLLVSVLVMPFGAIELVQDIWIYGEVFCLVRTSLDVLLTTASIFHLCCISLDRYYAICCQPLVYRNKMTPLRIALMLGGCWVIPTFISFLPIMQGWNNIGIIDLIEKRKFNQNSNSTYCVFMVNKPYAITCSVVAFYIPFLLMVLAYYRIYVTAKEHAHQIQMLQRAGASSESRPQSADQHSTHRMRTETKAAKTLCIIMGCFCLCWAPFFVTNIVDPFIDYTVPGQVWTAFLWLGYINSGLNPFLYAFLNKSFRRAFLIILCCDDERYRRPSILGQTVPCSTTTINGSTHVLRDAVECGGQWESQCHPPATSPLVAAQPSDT

`CN1C2CCC1CC(OC(=O)c1c[nH]c3ccccc13)C2` (stereo not drawn) was tested, and the Ki [1] was 200 nM and the Ki [2] was 158 nM.
`COc1ccc2[nH]cc(C3=CCCNC3)c2c1` was tested, and the Ki [2] was 603 nM.
In the case of `COc1cc(N)c(Cl)cc1C(=O)NC1CCN(CCCC(=O)N2CCC(N(C)C)CC2)CC1OC` (stereo not drawn) [4-Amino-5-chloro-N-(1-{4-[4-(dimethylamino)-1-piperidinyl]-4-oxobutyl}-3-methoxy-4-piperidinyl)-2-methoxybenzamide], the Ki [2] is reported as 1.38 nM.
`COc1cc(N)c(Cl)cc1C(=O)NC1CCN(Cc2ccccc2)CC1` [4-Amino-N-(1-benzyl-piperidin-4-yl)-5-chloro-2-methoxy-benzamide(Clebopride)] showed a Ki [2] of 53.7 nM.
`COc1cc(N)c(Cl)cc1C(=O)NC1CCN(CCCOc2ccc(F)cc2)CC1OC` (stereo not drawn) [4-amino-5-chloro-N-(1-(3-(4-fluorophenoxy)propyl)-3-methoxypiperidin-4-yl)-2-methoxybenzamide] was tested, and the Ki [2] was 51.3 nM.
With `CCN(CC)CCNC(=O)c1cc(Cl)c(N)cc1OC` [4-amino-5-chloro-N-[2-(diethylamino)ethyl]-2-methoxy-benzamide;hydrochloride] the Ki [2] was 3980 nM.
`CCn1c(=O)n(C(=O)NC2CC3CCC(C2)N3C)c2ccccc21` (stereo not drawn) [BIMU 1] was tested, and the Ki [2] was 53.7 nM.
`CC(C)n1c(=O)n(C(=O)NC2C[C@H]3CC[C@@H](C2)N3C)c2ccccc21` (stereo partly drawn) [BIMU 8] showed a Ki [1] of 79.4 nM and a Ki [2] of 25.1 nM.
Molecule `CN1C2CCC1CC(NC(=O)n1c(=O)[nH]c3ccccc31)C2` (stereo not drawn) [DAU 6215] has a Ki [2] of 224 nM.
In the case of `COc1ccc2[nH]c(=O)n(C(=O)OC3CC4CCC(C3)N4C)c2c1` (stereo not drawn) [DAU 6285], the Ki [1] is reported as 63.1 nM and the Ki [2] is reported as 26.9 nM.
`Cn1cc(C(=O)OCC2CCN(CCNS(C)(=O)=O)CC2)c2ccccc21` [GR 113808] gave a Ki [2] of 0.31 nM.
Work on `COc1[nH]c2ccc(F)cc2c1C(=O)OCC1CCN(CCNS(C)(=O)=O)CC1` [GR-125487] yielded a Ki [2] of 0.03 nM.
Molecule `COc1cc(N)c(Cl)cc1C(=O)NC1CCN2CCCC1C2` (stereo not drawn) [NSC_3035240] has a Ki [2] of 97.7 nM.
`CCCC[N+]12CCC(C1)C(NC(=O)c1cc(Cl)c(N)cc1OC)CC2` (stereo not drawn) [SB205149] gave a Ki [2] of 37.1 nM.
`CCN(CC)CCOC(=O)c1cc(Cl)c(N)cc1OC` [SDZ-205557] showed a Ki [1] of 6.3 nM and a Ki [2] of 6.3 nM.
For `COc1cc(N)c(Cl)cc1C(=O)NC1CN2CCC1CC2` (stereo not drawn) [ZACOPRIDE,R], the Ki [2] was 1070 nM and 302 nM and 224 nM.
For `NCCc1c[nH]c2ccc(O)cc12` [[3H]-5-HT], the Ki [2] was 79.4 nM.
Work on `COc1ccc2[nH]cc(CCN)c2c1` [tryptamine, 5-Methoxy] yielded a Ki [1] of 501 nM and a Ki [2] of 525 nM.
